target: T1, recombinant N-terminal MLH1 (residues 15-340) (Homo sapiens, UniProt P40692); assay: Fluorescence Polarisation Assay for MLH1; assay type: binding; conditions: 100 nM N-terminal MLH1, 5 nM probe compound
T1 construct: recombinant N-terminal MLH1 (residues 15-340)
T1 sequence (P40692 15-340): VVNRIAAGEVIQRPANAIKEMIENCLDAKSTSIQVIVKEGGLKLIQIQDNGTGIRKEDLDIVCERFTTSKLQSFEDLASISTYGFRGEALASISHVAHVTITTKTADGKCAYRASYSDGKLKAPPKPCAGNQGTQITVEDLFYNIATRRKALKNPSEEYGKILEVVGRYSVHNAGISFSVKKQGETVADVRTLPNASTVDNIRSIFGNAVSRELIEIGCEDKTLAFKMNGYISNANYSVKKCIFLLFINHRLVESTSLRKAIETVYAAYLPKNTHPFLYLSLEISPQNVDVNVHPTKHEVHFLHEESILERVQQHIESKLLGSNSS
Experimental: Fluorescence Polarisation Assay for MLH1
Test compounds, as 10 mM DMSO stocks, were dispensed into a 384-well Low Flange Black Flat Bottom Polystyrene Non-binding Surface plate (Corning®, item number 3575) using a Labcyte Echo acoustic liquid handler. […] 20 μL of a 2× solution (200 nM) of recombinant N-terminal MLH1 (residues 15-340) in assay buffer (25 mM HEPES, pH 7.5, 250 mM NaCl, 10 mM MgCl2, 0.01% Triton X-100, 5 mM Dithiothreitol) was added to all wells in columns 1-23 and 20 μL assay buffer was added to all wells in column 24 using an E1-ClipTip pipette (ThermoFisher). Plates were centrifuged for 1 minute at 250 xg and were incubated at room temperature for 30 minutes prior to the addition of 20 μL of 2×(10 nM) of 5-((5-(4-((2-(2-(Benzyloxy)-4,6-dihydroxybenzoyl)isoindolin-5-yl)methyl)piperazin-1-yl)pentyl)carbamoyl)-2-(6-(dimethylamino)-3-(dimethyliminio)-3H-xanthen-9-yl)benzoate (referred to hereinafter as “probe compound”) in assay buffer (prepared from a 1 mM DMSO stock) with an E1-ClipTip pipette (ThermoFisher). The final concentration of N-terminal MLH1 was 100 nM and the final concentration of the probe compound was 5 nM. Compound plates were centrifuged for 1 minute at 250 xg for 1 minute and immediately read on a PheraStar FSX (fitted with 384-well aperture spoon and 590 675 675 FP optic module). The gain and focus were adjusted before each plate was read so that the polarisation of a no enzyme control (column 24) was equal to 35 mP. Data were normalised against the no inhibitor controls (column 23) and no enzyme controls (column 24).

IC50	Structure (SMILES)
0.1 to 1 µM	COc1cc(O)c(C(=O)N2Cc3cccc(N[C@H]4CCOC4)c3C2)c(OCc2ccccc2)c1 [Example 1, (S)-(2-(Benzyloxy)-6-hydroxy-4-methoxyphenyl)(4-((tetrahydrofuran-3-yl)amino)isoindolin-2-yl)methanone]
0.1 to 1 µM	O=C(c1c(O)cc(C(F)F)cc1OCc1ccccn1)N1Cc2cccc(NC3COC3)c2C1 [Example 4.5, (4-(Difluoro methyl)-2-hydroxy-6-(pyridin-2-ylmethoxy)phenyl) (4-(oxetan-3-ylamino)isoindolin-2-yl) methanone]
0.1 to 1 µM	CN(C)CCOc1nc2c(c(NC3CCOC3)n1)CN(C(=O)c1c(O)cc(C#N)cc1OCc1ccccc1)CC2 (centres unmarked) [Example 27.16, 3-(Benzyloxy)-4-(2-(2-(dimethylamino)ethoxy)-4-((tetrahydrofuran-3-yl)amino)-5,6,7,8-tetrahydropyrido[4,3-d]pyrimidine-6-carbonyl)-5-hydroxybenzonitrile]
0.1 to 1 µM	O=C1OCCC1Nc1cccc2c1CN(C(=O)c1c(O)cc(C(F)F)cc1OCc1ccccc1)C2 (centres unmarked) [Example 4.16, 3-((2-(2-(Benzyloxy)-4-(difluoromethyl)-6-hydroxybenzoyl)isoindolin-4-yl)amino)dihydrofuran-2(3H)-one]
0.1 to 1 µM	O=C(c1c(O)cc(C(F)F)cc1OCc1ccccn1)N1Cc2cccc(N[C@H]3CCOC3)c2C1 [Example 4.9, (S)-(4-(Difluoromethyl)-2-hydroxy-6-(pyridin-2-ylmethoxy)phenyl) (4-((tetrahydrofuran-3-yl)amino)isoindolin-2-yl) methanone]
1 to 10 µM	N#Cc1cc(O)c(C(=O)N2Cc3ccccc3C2)c(OCc2ccccc2)c1 [Example 12.4, 3-(Benzyloxy)-5-hydroxy-4-(isoindoline-2-carbonyl)benzonitrile]
1 to 10 µM	O=C(c1c(O)cc(C(F)F)cc1OCc1ccccc1)N1CCCc2cc(NC3CCOC3)ccc21 (centres unmarked) [Example 27.19, (2-(Benzyloxy)-4-(difluoromethyl)-6-hydroxyphenyl)(6-((tetrahydrofuran-3-yl)amino)-3,4-dihydroquinolin-1(2H)-yl)methanone]
0.1 to 1 µM	CN(C)CCOc1cc2c(c(N[C@@H]3CCOC3)c1)CN(C(=O)c1c(O)cc(Cl)cc1OCc1ccccc1)C2 [Example 9, (R)-(2-(Benzyloxy)-4-chloro-6-hydroxyphenyl)(6-(2-(dimethylamino)ethoxy)-4-((tetrahydrofuran-3-yl)amino)isoindolin-2-yl)methanone]
0.1 to 1 µM	O=C(c1c(O)cc(C(F)F)cc1OCc1ccccc1)N1Cc2ccc(Oc3ccncc3)cc2C1 [Example 4.60, (2-(Benzyloxy)-4-(difluoromethyl)-6-hydroxyphenyl)(5-(pyridin-4-yloxy)isoindolin-2-yl)methanone]
0.1 to 1 µM	CN1CC[C@@H](Nc2cccc3c2CN(C(=O)c2c(O)cc(C#N)cc2OCc2ccccc2)C3)C1=O [Example 10.28, (R)-3-(benzyloxy)-5-hydroxy-4-(4-((1-methyl-2-oxopyrrolidin-3-yl)amino)isoindoline-2-carbonyl)benzonitrile]
0.1 to 1 µM	O=C(c1c(O)cc(C(F)F)cc1OCc1ccccc1)N1CCc2ncnc(NC3CCOC3)c2C1 (centres unmarked) [Example 27.20, (2-(Benzyloxy)-4-(difluoromethyl)-6-hydroxyphenyl)(4-((tetrahydrofuran-3-yl)amino)-7,8-dihydropyrido[4,3-d]pyrimidin-6(5H)-yl)methanone]
0.1 to 1 µM	O=C(c1c(O)cc(C(F)F)cc1OCc1ccccc1)N1CCc2ccc(NC3CCOC3)cc21 (centres unmarked) [Example 27.2, (2-(Benzyloxy)-4-(difluoromethyl)-6-hydroxyphenyl)(6-((tetrahydrofuran-3-yl)amino)indolin-1-yl)methanone]
1 to 10 µM	O=C(c1c(O)cc(C(F)F)cc1OCc1ccccc1)N1CCc2cccc(OC3CCOC3)c2C1 (centres unmarked) [Example 4.80]
1 to 10 µM	O=C(c1c(O)cc(C(F)F)cc1OCc1ccccc1)N1CCc2cnccc21 [Example 27.21, (2-(Benzyloxy)-4-(difluoromethyl)-6-hydroxyphenyl)(2,3-dihydro-1H-pyrrolo[3,2-c]pyridin-1-yl)methanone]
0.1 to 1 µM	COc1ccc(COc2cc(C(F)F)cc(O)c2C(=O)N2Cc3cccc(N[C@H]4CCOC4)c3C2)cc1 [Example 4.8, (S)-(4-(Difluoromethyl)-2-hydroxy-6-((4-methoxybenzyl)oxy)phenyl)(4-((tetrahydrofuran-3-yl)amino)isoindolin-2-yl)methanone]
0.1 to 1 µM	CN1CC(Nc2cccc3c2CN(C(=O)c2c(O)cc(C(F)F)cc2OCc2ccccc2)C3)C1 [Example 4.33]
0.1 to 1 µM	N#Cc1cc(O)c(C(=O)N2Cc3cccc(NCc4cocn4)c3C2)c(OCc2ccccc2)c1 [Example 10.9, 3-(Benzyloxy)-5-hydroxy-4-(4-((oxazol-4-ylmethyl)amino)isoindoline-2-carbonyl)benzonitrile]
1 to 10 µM	O=C(c1c(O)cc(C(F)F)cc1OCc1nc2ccccc2[nH]1)N1CCc2cccc(N[C@H]3CCOC3)c2C1 [Example 28.4, (S)-(2-((1H-Benzo[d]imidazol-2-yl)methoxy)-4-(difluoromethyl)-6-hydroxyphenyl)(8-((tetrahydrofuran-3-yl)amino)-3,4-dihydroisoquinolin-2(1H)-yl)methanone]
0.1 to 1 µM	COCCNc1cccc2c1CN(C(=O)c1c(O)cc(C(F)F)cc1OCc1ccccc1)C2 [Example 4.28, (2-(Benzyloxy)-4-(difluoromethyl)-6-hydroxyphenyl) (4-((2-methoxyethyl)amino)isoindolin-2-yl)methanone]
< 0.1 µM	CN(C)CCOc1cc2c(c(N[C@H]3CCOC3)c1)CN(C(=O)c1c(O)cc(Cl)cc1OCc1ccccc1)CC2 [Example 22, (S)-(2-(Benzyloxy)-4-chloro-6-hydroxyphenyl)(6-(2-(dimethylamino)ethoxy)-8-((tetrahydrofuran-3-yl)amino)-3,4-dihydroisoquinolin-2(1H)-yl)methanone]
1 to 10 µM	CN(C)Cc1ccc2c(n1)CN(C(=O)c1c(O)cc(Cl)cc1OCc1ccccc1)C2 [Example 10.21]
0.1 to 1 µM	CN1CC(Oc2ccc3c(c2)CCN(C(=O)c2c(O)cc(C(F)F)cc2OCc2ccccc2)C3)C1 [Example 4.66, (2-(Benzyloxy)-4-(difluoromethyl)-6-hydroxyphenyl)(6-((1-methylazetidin-3-yl)oxy)-3,4-dihydroisoquinolin-2(1H)-yl)methanone]
0.1 to 1 µM	CN1CC[C@@H](Oc2ccc3c(c2)CCN(C(=O)c2c(O)cc(C(F)F)cc2OCc2ccccc2)C3)C1 [Example 4.65, (R)-(2-(Benzyloxy)-4-(difluoromethyl)-6-hydroxyphenyl)(6-((1-methylpyrrolidin-3-yl)oxy)-3,4-dihydroisoquinolin-2(1H)yl)methanone]
0.1 to 1 µM	O=C(c1c(O)cc(C(F)F)cc1OCc1ccccc1)N1Cc2ccc(OC3CCOCC3)cc2C1 [Example 4.78, (2-(Benzyloxy)-4-(difluoromethyl)-6-hydroxyphenyl) (5-((tetrahydro-2H-pyran-4-yl)oxy)isoindolin-2-yl)methanone]
0.1 to 1 µM	CC(=O)N1CC(Nc2cccc3c2CN(C(=O)c2c(O)cc(C#N)cc2OCc2ccccc2)C3)C1 [Example 16, 4-(4-((1-Acetylazetidin-3-yl)amino)isoindoline-2-carbonyl)-3-(benzyloxy)-5-hydroxybenzonitrile]
0.1 to 1 µM	O=C(c1c(O)cc(Cl)cc1OCc1ccccc1)N1Cc2cccc(N[C@H]3CCOC3)c2C1 [Example 8, (S)-(2-(Benzyloxy)-4-chloro-6-hydroxyphenyl)(4-((tetrahydrofuran-3-yl)amino)isoindolin-2-yl)methanone]
0.1 to 1 µM	COc1ccc(COc2cc(C(F)F)cc(O)c2C(=O)N2CCc3cccc(N[C@H]4CCOC4)c3C2)cc1 [Example 4.11, (S)-(4-(Difluoromethyl)-2-hydroxy-6-((4-methoxybenzyl)oxy)phenyl)(8-((tetrahydrofuran-3-yl)amino)-3,4-dihydroisoquinolin-2(1H)-yl)methanone]
1 to 10 µM	O=C(c1c(O)cc(Cl)cc1OCc1ccccc1)N1Cc2cccc(N[C@@H]3CCOC3)c2C1 [Example 7, (R)-(2-(Benzyloxy)-4-chloro-6-hydroxyphenyl)(4-((tetrahydrofuran-3-yl)amino)isoindolin-2-yl)methanone]
0.1 to 1 µM	O=C(c1c(O)cc(C(F)F)cc1OCc1ccccc1)N1Cc2ccc(Cn3ccnc3)cc2C1 [Example 4.50, (5-((1H-Imidazol-1-yl)methyl)isoindolin-2-yl)(2-(benzyloxy)-4-(difluoromethyl)-6-hydroxyphenyl)methanone]

Reference: patent publication US20260217687A1 (NeoPhore Limited, priority 2023, published 2026)
